Converted amounts (≈) assume the structure as drawn. Like-named read-outs stand apart in the source and are kept apart here.
Tests used:
Staphyloccus aureus X1.1 = assay: MIC, standard agar-dilution assay (Table IX); type: cell-based, Staphylococcus aureus; conditions: Staphylococcus aureus, read-out: MIC
[1] = tested on: Staphylococcus aureus V41; assay: MIC, standard agar-dilution assay (Table IX); type: cell-based; conditions: Staphylococcus aureus V41, Penicillin-resistant strain, read-out: MIC
[2] = tested on: Staphylococcus aureus X400; assay: MIC, standard agar-dilution assay (Table IX); type: cell-based; conditions: Staphylococcus aureus X400, Methicillin-resistant strain, read-out: MIC
[3] = tested on: Staphylococcus aureus S13E; assay: MIC, standard agar-dilution assay (Table IX); type: cell-based; conditions: Staphylococcus aureus, S13E
[4] = tested on: Staphylococcus epidermidis EPI1; assay: MIC, standard agar-dilution assay (Table IX); type: cell-based; conditions: Staphylococcus epidermidis EPI1; agar-dilution; read-out: MIC
[5] = tested on: Staphylococcus epidermidis 222; assay: MIC, standard agar-dilution assay (Table IX); type: cell-based; conditions: read-out: MIC
[6] = tested on: Streptococcus pyogenes C203; assay: MIC, standard agar-dilution assay (Table IX); type: cell-based; conditions: read-out: MIC
[7] = tested on: Streptococcus pneumoniae Park I; assay: MIC, standard agar-dilution assay (Table IX); type: cell-based; conditions: Streptococcus pneumoniae Park I; agar-dilution; read-out: MIC
[8] = tested on: Streptococcus Group D X66; assay: MIC, standard agar-dilution assay (Table IX); type: cell-based; conditions: read-out: MIC
[9] = tested on: Streptococcus Group D 2041; assay: MIC, standard agar-dilution assay (Table IX); type: cell-based; conditions: GROUPD2041, read-out: MIC
[10] = tested on: Haemophilus influenzae C.L.; assay: MIC, standard agar-dilution assay (Table IX); type: cell-based; conditions: Ampicillin-sensitive strain, read-out: MIC
[11] = tested on: Haemophilus influenzae 76; assay: MIC, standard agar-dilution assay (Table IX); type: cell-based; conditions: Haemophilus influenzae 76, Ampicillin-resistant strain, read-out: MIC
Escherichia coli N10 = assay: MIC, standard agar-dilution assay (Table IX); type: cell-based; conditions: read-out: MIC
Escherichia coli EC14 = assay: MIC, standard agar-dilution assay (Table IX); type: cell-based; conditions: read-out: MIC
Escherichia coli TEM = assay: MIC, standard agar-dilution assay (Table IX); type: cell-based; conditions: read-out: MIC
Klebsiella X26 = assay: MIC, standard agar-dilution assay (Table IX); type: cell-based; conditions: read-out: MIC
[12] = tested on: Mycoplasma gallisepticum 29C; assay: MIC, broth-dilution microtiter test (Table X); type: cell-based; conditions: Mycoplasmoides gallisepticum, read-out: MIC
Description: (§1) The MIC's in Table X were obtained using conventional broth-dilution microtiter tests.

[13] = tested on: Mycoplasma hyopneumoniae S5972; assay: MIC, broth-dilution microtiter test (Table X); type: cell-based; conditions: Mesomycoplasma hyopneumoniae, read-out: MIC
Description: as §1

Mycoplasma synoviae 40A = assay: MIC, broth-dilution microtiter test (Table X); type: cell-based; conditions: Mycoplasmopsis synoviae, read-out: MIC
Description: as §1

[14] = tested on: Pasteurella hemolytica 22C; assay: MIC, broth-dilution microtiter test (Table X); type: cell-based; conditions: read-out: MIC
Description: as §1

[15] = tested on: Pasteurella multocida 17E; assay: MIC, broth-dilution microtiter test (Table X); type: cell-based; conditions: Bovine isolate, read-out: MIC
Description: as §1

[16] = tested on: Pasteurella multocida 60A; assay: MIC, broth-dilution microtiter test (Table X); type: cell-based; conditions: Avian isolate, read-out: MIC
Description: as §1

Staphylococcus aureus = assay: MIC, broth-dilution microtiter test (Table X); type: cell-based; conditions: read-out: MIC
Description: as §1

Streptococcus sp. 19F = assay: MIC, broth-dilution microtiter test (Table X); type: cell-based; conditions: read-out: MIC
Description: as §1

[17] = tested on: Streptococcus pyogenes C203; assay: ED50 in mice experimentally infected with S. pyogenes C203 (Table XI); type: in vivo; conditions: Streptococcus pyogenes, doses given 1 and 4 hours postinfection, read-out: ED50
Description: The C-20 modified derivatives of this invention have shown in vivo antimicrobial activity against experimentally-induced infections in laboratory animals. When two doses of test compound were administered to mice experimentally infected with S. pyogenes C203, the activity observed was measured as an ED50 value [effective dose in mg/kg to protect 50% of the test animals: see Warren Wick, et al., J. Bacteriol. 81, 233-235 (1961)].
^a mg/kg × 2; doses given 1 and 4 hours postinfection

Pasteurella multocida [18] = assay: Pasteurella infection in one-day-old chicks, subcutaneous administration (Table XII); type: in vivo; conditions: Administered subcutaneously, 30 mg/kg × 2, 1 and 4 hours post-challenge
Description: (§2) Many of the C-20 modified derivatives of this invention have also shown in vivo antibacterial activity against infections induced by gram-negative bacteria. Tables XII and XIII summarize the results of tests in which illustrative compounds were evaluated against a Pasteurella infection in one-day-old chicks. The compounds were administered parenterally or orally after challenge of the chicks with Pasteurella multocida (0.1 ml of a 10^-4 dilution of a twenty-hour tryptose broth culture of an avian P. multocida given subcutaneously). In these tests, unless indicated otherwise, all non-medicated infected chicks died within 24 hours of Pasteurella challenge. In the tests summarized in Table XII, the compounds were administered by subcutaneous injection at a dosage of 30 mg/kg, 1 and 4 hours post-challenge of the chicks with P. multocida. In the tests summarized in Table XIII the compounds were administered in medicated drinking water (at a level of 2 g/gal) available from 4 to 20 hours prior to challenge of the chicks with P. multocida and during the 3 -day test period.
^a Administered subcutaneously; 30 mg/kg × 2

Pasteurella multocida [19] = assay: Pasteurella infection in one-day-old chicks, medicated drinking water (Table XIII); type: in vivo; conditions: Administered in the available drinking water at 2 g/gal
Description: as §2
^a Administered in the available drinking water at a concentration of […]

[20] = Titratable groups in 66% aqueous DMF (Tables XIV-XVI); type: physicochemical
Description: ^c Run in 66% aqueous DMF
^d Run in 66% aqueous DMF

Mycoplasma hyorhinis 29E = assay: MIC, broth-dilution microtiter test (Table X); type: cell-based; conditions: read-out: MIC
Description: as §1

[21] = Titratable groups (first value)

In the case of CCC1OC(=O)CC(O)C(C)C(OC2OC(C)C(O)C(N(C)C)C2O)C(CCN2CC3(C)CC2CC(C)(C)C3)CC(C)C(=O)C=CC(C)=CC1COC1OC(C)C(O)C(OC)C1OC (stereo not shown) [Compound D21, 20-DH-DO-20-[1,3,3-trimethyl-6-azabicyclo[3.2.1]octan-6-yl]desmycosin], the MIC (Staphyloccus aureus X1.1) is reported as 1 mg/L (≈ 1.1 µM), the MIC [1] is reported as 1 mg/L (≈ 1.1 µM) and the MIC [2] is reported as 1 mg/L (≈ 1.1 µM). The MIC [3] was 1 mg/L (≈ 1.1 µM), the MIC [4] was 1 mg/L (≈ 1.1 µM) and the MIC [5] was 0.5 mg/L (≈ 0.55 µM). The MIC [6] was 0.5 mg/L (≈ 0.55 µM), the MIC [7] was 0.5 mg/L (≈ 0.55 µM) and the MIC [8] was 4 mg/L (≈ 4.4 µM). It also gave an MIC [9] of 8 mg/L (≈ 8.8 µM), an MIC [10] of 32 mg/L (≈ 35.2 µM) and an MIC [11] of 16 mg/L (≈ 17.6 µM). For the same compound, the MIC (Escherichia coli N10) was 64 mg/L (≈ 70.4 µM), the MIC (Escherichia coli EC14) was 64 mg/L (≈ 70.4 µM) and the MIC (Escherichia coli TEM) was 32 mg/L (≈ 35.2 µM). For the same compound, the MIC (Klebsiella X26) was 64 mg/L (≈ 70.4 µM), the MIC [12] was 1.56 mg/L (≈ 1.72 µM) and the MIC [13] was 0.195 mg/L (≈ 0.214 µM). The MIC (Mycoplasma synoviae 40A) was 0.39 mg/L (≈ 0.429 µM), the MIC [14] was 3.12 mg/L (≈ 3.43 µM) and the MIC [15] was 3.12 mg/L (≈ 3.43 µM). It also gave an MIC [16] of 3.12 mg/L (≈ 3.43 µM), an MIC (Staphylococcus aureus) of 0.78 mg/L (≈ 0.858 µM) and an MIC (Streptococcus sp. 19F) of 1.56 mg/L (≈ 1.72 µM). For the same compound, the ED50 ([17]; C203, Oral) was 10 mg/kg, the ED50 ([17]; C203, sc, Subcutaneous) was 1 mg/kg and the “Number of Deaths/Number Treated” value (Pasteurella multocida [18]) was 7/10. The “Number of Deaths/Number Treated” value (Pasteurella multocida [19]) was 3/10, the pKa ([20]; Titratable groups) was 9.7 and the pKa [20, 21] was 8.
Work on CCC1OC(=O)CC(O)C(C)C(OC2OC(C)C(O)C(N(C)C)C2O)C(CCN2CCCc3ccccc32)CC(C)C(=O)C=CC(C)=CC1COC1OC(C)C(O)C(OC)C1OC (stereo not shown) [Compound D11, 20-DH-DO-20-(1,2,3,4-Tetrahydroquinolin-1-yl)desmycosin] yielded an MIC (Staphyloccus aureus X1.1) of 0.5 mg/L (≈ 0.562 µM), an MIC [1] of 0.5 mg/L (≈ 0.562 µM) and an MIC [2] of 0.5 mg/L (≈ 0.562 µM). It also gave an MIC [3] of 0.5 mg/L (≈ 0.562 µM), an MIC [4] of 0.5 mg/L (≈ 0.562 µM) and an MIC [5] of 0.25 mg/L (≈ 0.281 µM). The MIC [6] was 0.5 mg/L (≈ 0.562 µM), the MIC [7] was 2 mg/L (≈ 2.25 µM) and the MIC [8] was 8 mg/L (≈ 9 µM). For the same compound, the MIC [9] was 8 mg/L (≈ 9 µM), the MIC [10] was 64 mg/L (≈ 72 µM) and the MIC [11] was 8 mg/L (≈ 9 µM). For the same compound, the MIC (Escherichia coli N10) was greater than 128 mg/L, the MIC (Escherichia coli EC14) was greater than 128 mg/L and the MIC (Escherichia coli TEM) was greater than 128 mg/L. For the same compound, the MIC (Klebsiella X26) was greater than 128 mg/L, the MIC [12] was no more than 0.048 mg/L and the MIC [13] was 1.56 mg/L (≈ 1.75 µM). It also gave an MIC (Mycoplasma hyorhinis 29E) of 6.25 mg/L (≈ 7.03 µM), an MIC (Mycoplasma synoviae 40A) of 0.78 mg/L (≈ 0.877 µM) and an MIC [14] of 25 mg/L (≈ 28.1 µM). For the same compound, the MIC [15] was 12.5 mg/L (≈ 14.1 µM), the MIC [16] was 50 mg/L (≈ 56.2 µM) and the MIC (Staphylococcus aureus) was 1.56 mg/L (≈ 1.75 µM). The MIC (Streptococcus sp. 19F) was 3.12 mg/L (≈ 3.51 µM), the ED50 ([17]; C203, Oral) was 19 mg/kg and the ED50 ([17]; C203, sc, Subcutaneous) was 7.5 mg/kg. For the same compound, the “Number of Deaths/Number Treated” value (Pasteurella multocida [18]) was 10/10 and the “Number of Deaths/Number Treated” value (Pasteurella multocida [19]) was 8/10.
In the case of CCC1OC(=O)CC(O)C(C)C(OC2OC(C)C(O)C(N(C)C)C2O)C(CCN2CCCC3CCCCC32)CC(C)C(=O)C=CC(C)=CC1COC1OC(C)C(O)C(OC)C1OC (stereo not shown) [Compound D20, 20-DH-DO-20-(decahydroquinolin-1-yl)desmycosin], the MIC (Staphyloccus aureus X1.1) is reported as 0.5 mg/L (≈ 0.559 µM), the MIC [1] is reported as 0.5 mg/L (≈ 0.559 µM) and the MIC [2] is reported as 0.5 mg/L (≈ 0.559 µM). It also gave an MIC [3] of 0.5 mg/L (≈ 0.559 µM), an MIC [4] of 0.5 mg/L (≈ 0.559 µM) and an MIC [5] of 0.25 mg/L (≈ 0.279 µM). It also gave an MIC [6] of 0.25 mg/L (≈ 0.279 µM), an MIC [7] of 0.12 mg/L (≈ 0.134 µM) and an MIC [8] of 8 mg/L (≈ 8.94 µM). For the same compound, the MIC [9] was 8 mg/L (≈ 8.94 µM), the MIC [10] was 16 mg/L (≈ 17.9 µM) and the MIC [11] was 16 mg/L (≈ 17.9 µM). For the same compound, the MIC (Escherichia coli N10) was 128 mg/L (≈ 143 µM), the MIC (Escherichia coli EC14) was 128 mg/L (≈ 143 µM) and the MIC (Escherichia coli TEM) was 32 mg/L (≈ 35.7 µM). For the same compound, the MIC (Klebsiella X26) was 16 mg/L (≈ 17.9 µM), the MIC [12] was 0.78 mg/L (≈ 0.871 µM) and the MIC [13] was 0.78 mg/L (≈ 0.871 µM). For the same compound, the MIC (Mycoplasma hyorhinis 29E) was 50 mg/L (≈ 55.9 µM), the MIC (Mycoplasma synoviae 40A) was 0.195 mg/L (≈ 0.218 µM) and the MIC [14] was 3.12 mg/L (≈ 3.49 µM). It also gave an MIC [15] of 3.12 mg/L (≈ 3.49 µM), an MIC [16] of 3.12 mg/L (≈ 3.49 µM) and an MIC (Staphylococcus aureus) of 0.78 mg/L (≈ 0.871 µM). It also gave an MIC (Streptococcus sp. 19F) of 3.12 mg/L (≈ 3.49 µM), an ED50 ([17]; C203, Oral) of 34 mg/kg and an ED50 ([17]; C203, sc, Subcutaneous) of 1.7 mg/kg. For the same compound, the “Number of Deaths/Number Treated” value (Pasteurella multocida [19]) was 0/10, the pKa ([20]; Titratable groups) was 9.4 and the pKa [20, 21] was 7.9.
With CCC1OC(=O)CC(O)C(C)C(OC2OC(C)C(O)C(N(C)C)C2O)C(CCN2CC3CCCCC3C2)CC(C)C(=O)C=CC(C)=CC1COC1OC(C)C(O)C(OC)C1OC (stereo not shown) [Compound D45] the “Number of Deaths/Number Treated” value (Pasteurella multocida [18]) was 0/10 and the “Number of Deaths/Number Treated” value (Pasteurella multocida [19]) was 1/10.

Reference: patent US4820695A, “C-20-dihydro-deoxy-(cyclic amino)-derivatives of macrolide antibiotics” (priority 1987, dated 1989)
